{"source": "patent US11895992B2", "about": "“Animal models of corneal ectatic diseases, methods of producing, and methods of use thereof” (priority 2014, dated 2024)", "key": {"[1]": {"system": "cornea of the right eye of a Wistar rat", "settings": "for Observation in Treated Eye (Number of Rats) Angiogenesis / Observation in Treated Eye (Number of Rats) Corneal Keratoconus / Observation in Treated Eye (Number of Rats) No Change: 10 μL applied once, 5 rats treated", "experimental": "Rat models of corneal angiogenesis and corneal keratoconus were produced as follows. Aqueous solutions of phenol having a concentration of 0.1 M, 0.5 M, 1.0 M, 3.0 M, 5.6 M, or 8.5 M were prepared by mixing phenol and water. The solutions were then sterilized by heating to 100° C. for 15 minutes. Then, 10 μL of the sterile phenol solution was topically applied to the center of the cornea of the right eye of a Wistar rat that was two months old. Five rats were treated for each concentration of phenol tested. The phenol solution was allowed to absorb into the eye, and was applied only once. Because the eye has its own natural protective mechanisms, it was not necessary to wash the eye at the end of the application.\nHistological studies were performed after eight weeks following the application of phenol. The cornea was excised, and a piece of the corneal epithelium was stained with hematoxylin and eosin stain."}, "cornea": {"system": "cornea", "settings": "compared to the amount observed when benzene is used"}, "[2]": {"system": "cornea of the right eye of a Wistar rat", "experimental": "Rat models of corneal angiogenesis were produced as follows. Aqueous benzene compositions having the desired concentration (between 3.0 M and 7.0 M) were prepared by mixing benzene and water. The aqueous composition was then sterilized by heating to 100° C. for 15 minutes. In particular, 3.0 M, 4.0 M, 5.0 M, 6.0 M, or 7.0 M aqueous benzene compositions were prepared. Then, 10 μL of each composition was topically applied to the center of the cornea of the right eye of a Wistar rat that was two to three months old. The benzene aqueous composition was allowed to absorb into the eye, and was applied only once. Because the eye has its own natural protective mechanisms, it was not necessary to wash the eye at the end of the application."}, "[3]": {"system": "cornea of one eye of a Wistar rat", "experimental": "A rat model of corneal keratoconus was produced as follows. An aqueous benzene composition having a concentration of 7.0 M to 8.5 M was prepared by mixing water and benzene. The composition was then sterilized by heating the solution to 100° C. for 15 minutes. The aqueous benzene composition (10 μL) was topically applied directly to the center of the cornea of one eye of a Wistar rat by micropipetting. The rat was three months old, and benzene was applied only once."}, "[4]": {"settings": "7.0 M to 8.5 M aqueous benzene composition, 10 μL"}}, "note": "Read-outs that look alike come from different tables or passages of the source."}
{"smiles": "Oc1ccccc1", "note": "[phenol]", "values": [{"measurement": "other anatomical or inflammatory alterations besides new corneal vessels", "setting": "[1]; 3 M phenol solution, 10 μL, three weeks (FIG. 1B)", "value": "no other anatomical or inflammatory alterations were observed"}, {"measurement": "Observation in Treated Eye (Number of Rats) Angiogenesis", "setting": "[1]; Phenol Concentration 0.1M", "value": "1 Number of Rats"}, {"measurement": "Observation in Treated Eye (Number of Rats) Corneal Keratoconus", "setting": "[1]; Phenol Concentration 0.1M", "value": "0 Number of Rats"}, {"measurement": "Observation in Treated Eye (Number of Rats) No Change", "setting": "[1]; Phenol Concentration 0.1M", "value": "4 Number of Rats"}, {"measurement": "Observation in Treated Eye (Number of Rats) Angiogenesis", "setting": "[1]; Phenol Concentration 0.5M", "value": "1 Number of Rats"}, {"measurement": "Observation in Treated Eye (Number of Rats) Corneal Keratoconus", "setting": "[1]; Phenol Concentration 0.5M", "value": "0 Number of Rats"}, {"measurement": "Observation in Treated Eye (Number of Rats) No Change", "setting": "[1]; Phenol Concentration 0.5M", "value": "4 Number of Rats"}, {"measurement": "Observation in Treated Eye (Number of Rats) Angiogenesis", "setting": "[1]; Phenol Concentration 1.0M", "value": "3 Number of Rats"}, {"measurement": "Observation in Treated Eye (Number of Rats) Corneal Keratoconus", "setting": "[1]; Phenol Concentration 1.0M", "value": "0 Number of Rats"}, {"measurement": "Observation in Treated Eye (Number of Rats) No Change", "setting": "[1]; Phenol Concentration 1.0M", "value": "7 Number of Rats"}, {"measurement": "Observation in Treated Eye (Number of Rats) Angiogenesis", "setting": "[1]; Phenol Concentration 3.0M", "value": "4 Number of Rats"}, {"measurement": "Observation in Treated Eye (Number of Rats) Corneal Keratoconus", "setting": "[1]; Phenol Concentration 3.0M", "value": "2 Number of Rats"}, {"measurement": "Observation in Treated Eye (Number of Rats) No Change", "setting": "[1]; Phenol Concentration 3.0M", "value": "1 Number of Rats"}, {"measurement": "Observation in Treated Eye (Number of Rats) Angiogenesis", "setting": "[1]; Phenol Concentration 6.5M", "value": "4 Number of Rats"}, {"measurement": "Observation in Treated Eye (Number of Rats) Corneal Keratoconus", "setting": "[1]; Phenol Concentration 6.5M", "value": "2 Number of Rats"}, {"measurement": "Observation in Treated Eye (Number of Rats) No Change", "setting": "[1]; Phenol Concentration 6.5M", "value": "1 Number of Rats"}, {"measurement": "Observation in Treated Eye (Number of Rats) Angiogenesis", "setting": "[1]; Phenol Concentration 8.5M", "value": "3 Number of Rats"}, {"measurement": "Observation in Treated Eye (Number of Rats) Corneal Keratoconus", "setting": "[1]; Phenol Concentration 8.5M", "value": "1 Number of Rats"}, {"measurement": "Observation in Treated Eye (Number of Rats) No Change", "setting": "[1]; Phenol Concentration 8.5M", "value": "2 Number of Rats"}, {"measurement": "period over which blood vessel growth was observed", "setting": "[1]; after single application of aqueous phenol solution", "value": "four"}, {"measurement": "new blood vessel formation in the cornea", "setting": "[1]; all concentrations tested (0.1 M to 8.5 M), at least one of the rats in each group, one week after application", "value": "new blood vessels began to form in the cornea"}, {"measurement": "histology of corneal epithelium, hematoxylin and eosin stain", "setting": "[1]; eight weeks after single application of 3.0 M phenol solution (10 μl), FIG. 1C", "value": "well differentiated blood vessels can be seen under the basal membrane of the corneal epithelium"}, {"measurement": "changes associated with corneal ectasia, particularly corneal keratoconus", "setting": "[1]; higher concentrations of phenol tested (3.0 M, 5.6 M, and 8.5 M)", "value": "observed in some of the rats"}, {"measurement": "amount of new blood vessels observed in the cornea, compared with one week", "setting": "[1]; three weeks after application (FIG. 1B, 3 M solution)", "value": "even greater"}, {"measurement": "fibrosis and scar tissue formation, phenol compared with benzene", "setting": "cornea", "value": "less fibrosis and scar tissue formation"}]}
{"smiles": "c1ccccc1", "note": "[benzene]", "values": [{"measurement": "new blood vessel formation in the cornea", "setting": "[2]; all concentrations of benzene (3.0 M to 7.0 M, 10 μL), as early as 15 days after application", "value": "new blood vessels began to form in the cornea"}, {"measurement": "persistence of observed growth of new blood vessels from the initial application", "setting": "[2]; single application of benzene", "value": "at least four"}, {"measurement": "amount of new blood vessels observed in the cornea, compared with 15 days", "setting": "[2]; three weeks after application", "value": "even greater"}, {"measurement": "amount of new blood vessels observed when higher concentrations were applied", "setting": "[2]; within 15 days of application, 3.0 M to 7.0 M", "value": "increased"}, {"measurement": "time at which changes in the cornea began to occur following application", "setting": "[3]; [4]", "value": "within the first week"}, {"measurement": "time of protrusion of the cornea following application", "setting": "[3]; [4]", "value": "within the second week"}, {"measurement": "corneal tissue changes in addition to angiogenesis", "setting": "[3]; 7.0 M to 8.5 M aqueous benzene composition, 10 μL, applied once (FIG. 3)", "value": "marked thinning, and outward protrusion"}, {"measurement": "severity of corneal keratoconus / endophthalmitis (intraocular infection)", "setting": "[3]; 10 μL of a 9.0 M aqueous benzene composition", "value": "so severe that the rats developed endophthalmitis"}]}
